# Patent publication US20110183366A1, “Methods for achieving a protective ACE2 expression level to treat kidney disease and hypertension” (priority 2004, published 2011)
# “Also recorded” adds a separate entry of the source.
# How the values were obtained:
# [1] = tested on: db/m and db/db mice; test: Urinary albumin/creatinine ratio during chronic ACE2 inhibition in db/m and db/db mice; format: in vivo, mouse
# From the text: Pharmacological ACE2 inhibition in db/m and db/db mice. […] Vehicle control mice received injections of sterile PBS in the same volume. […] Urinary albumin/creatinine ratio. ELISA kits for murine urinary albumin and creatinine companion kits from Exocell were used according to manufacturer's instructions to measure albumin/creatinine ratio in urine samples. Spot urine samples were collected at 8 weeks of age, before initiating the administration of the ACE2 inhibitor, and the AT1 blocker (at 8 weeks of age) and after 12 and 16 weeks of administration of these agents. Statistical analysis. Statistical analysis was performed using unpaired t-test or ANOVA when appropriate. Significance was defined as p<0.05. Data were expressed as mean±SE. The Effect of chronic ACE2 inhibition on albumin excretion and glomerular fibronectin deposition. To determine the extent to which chronic ACE2 inhibition results in increased albuminuria in the db/db mice, a specific ACE2 inhibitor, MLN-4760, was administered to the mice for 16 consecutive weeks starting at 8 weeks of age. At 8 weeks of age, before starting MLN or vehicle administration, db/db mice from both groups had virtually indistinguishable levels of urinary albumin excretion (UAE; 69.5±18 vs. 81±15 μg albumin/mg creatinine, respectively). […] In db/m mice treated with MLN-4760, UAE was higher than in the vehicle-treated db/m controls, but the difference was small and not statistically significant (55±24 vs. 32±3, μg/mg, respectively, p=NS).
# [2] = biological target: T1, human recombinant (hr) ACE2 (Homo sapiens, UniProt Q9BYF1); test: Fluorescence quenching with 7-Mca-YVADAPK(Dnp) substrate on recombinant ACE2; format: biochemical; conditions: for quenching of fluorescence: hrACE2 20 nmol/L, inhibitor concentration up to 100 μmol/L
# T1 construct: purchased R&D Systems
# Method: A fluorescent substrate of ACE and ACE2, i.e., 7-Mca-YVADAPK(Dnp) (R&D Systems), was used to concurrently assay ACE and ACE2 protein activity in tissue samples. Cleavage of this substrate by either enzyme removes the 2,4-dinitrophenyl moiety that quenches the fluorescence of the 7-methoxycoumarin moiety, thus resulting in increased fluorescence. To prevent undesirable hydrolysis of the substrate by a range of non-metalloprotease enzymes from mouse tissues, all tests were performed with the addition of an inhibitor cocktail (complete EDTA-free tablets, Roche).
# MLN-4760 quenched the signal completely at 1-10 nmol/L, whereas a higher concentration (100 nmol/L) of DX600 was needed to achieve complete quenching of the signal. Therefore, further studies were done using MLN-4760. In tissue extracts, the concentrations of MLN-4760 required for fluorescence quenching were high and more variable.
# [3] = tested on: podocytes in culture; conditions: cited from earlier work
# [4] = tested on: ACE and ACE2 in kidney cortex; test: 7-Mca-YVADAPK(Dnp) fluorescence assay in kidney cortex tissue extracts; format: biochemical, mouse; conditions: for fluorescence signal, % of control: EDTA 1 mmol/L, captopril and MLN-4760 alone or concomitantly
# [5] = tested on: db/m and db/db mice; test: Glomerular fibronectin staining after chronic ACE2 inhibition; format: in vivo, mouse
# Method: Pharmacological ACE2 inhibition in db/m and db/db mice. A specific ACE2 inhibitor, MLN-4760 (kind gift from Millennium Pharmaceuticals, Cambridge, Mass.) was injected to db/m and db/db mice subcutaneously (40-80 mg per kg of body weight (mg/kg/BW), every other day), starting at 8 weeks of age until the mice reached the age of 24 weeks. Vehicle control mice received injections of sterile PBS in the same volume.
# Chronic ACE2 inhibition was also associated with an increased glomerular deposition of fibronectin, an extracellular matrix protein. In glomeruli from db/m mice receiving MLN-4760, fibronectin staining was increased as compared to their vehicle-treated db/m counterparts. In db/db mice, the MLN-4760 administration was also associated with an exaggeration of fibronectin staining. The number of glomeruli with strong fibronectin staining was used to semi-quantify the observed changes in kidneys from 12-16 animals in each group.
# T1 sequence (Q9BYF1 18-805): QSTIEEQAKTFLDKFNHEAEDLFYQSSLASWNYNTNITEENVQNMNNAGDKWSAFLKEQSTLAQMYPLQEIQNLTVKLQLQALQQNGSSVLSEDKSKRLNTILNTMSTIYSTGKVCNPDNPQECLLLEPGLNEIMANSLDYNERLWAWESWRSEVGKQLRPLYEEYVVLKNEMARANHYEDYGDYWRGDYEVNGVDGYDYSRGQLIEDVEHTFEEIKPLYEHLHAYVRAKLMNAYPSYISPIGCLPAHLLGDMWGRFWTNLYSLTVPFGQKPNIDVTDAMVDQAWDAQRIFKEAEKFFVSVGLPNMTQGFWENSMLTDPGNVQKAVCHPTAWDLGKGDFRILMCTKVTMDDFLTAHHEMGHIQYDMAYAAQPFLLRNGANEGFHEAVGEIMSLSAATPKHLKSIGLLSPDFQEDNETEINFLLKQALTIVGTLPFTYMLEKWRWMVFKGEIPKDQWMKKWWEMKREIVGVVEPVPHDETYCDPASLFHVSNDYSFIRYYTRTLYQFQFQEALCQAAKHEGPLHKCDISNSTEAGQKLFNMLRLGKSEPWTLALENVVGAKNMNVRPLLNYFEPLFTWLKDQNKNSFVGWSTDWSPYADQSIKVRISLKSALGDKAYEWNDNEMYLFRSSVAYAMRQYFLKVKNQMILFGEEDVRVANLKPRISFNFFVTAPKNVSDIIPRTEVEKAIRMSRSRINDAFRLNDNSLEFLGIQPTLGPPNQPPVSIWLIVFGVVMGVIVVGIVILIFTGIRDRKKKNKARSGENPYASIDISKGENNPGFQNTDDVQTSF
compound,measurement,setting,value
CCCc1nc2c(C)cc(-c3nc4ccccc4n3C)cc2n1Cc1ccc(-c2ccccc2C(=O)O)cc1 [telmisartan],effect on the increase in urinary albumin associated with the ACE2 inhibitor,"[1]; db/db mice, telmisartan 2 mg/kg/day in drinking water together with s.c. MLN-4760",prevented the increase in urinary albumin excretion; also recorded: completely prevented the increase in urinary albumin
C[C@H](CS)C(=O)N1CCC[C@H]1C(=O)O [captopril],quenching of fluorescence,[2],failed to quench fluorescence
same,effect on stretch-induced increase in ANG II generation,[3],did not abrogate the stretch-induced increase in ANG II generation
same,"fluorescence signal, % of control",[4],24.9±1.1 % of control
"CC(C)C[C@H](N[C@@H](Cc1cncn1Cc1cc(Cl)cc(Cl)c1)C(=O)O)C(=O)O [MLN-4760, (S,S)-2-{1-carboxy-2-[3-(3,5-dichlorobenzyl)-3H-imidazol4-yl]-ethylamino}-4-methylpentanoic acid]",concentration for complete quenching of the signal,[2]; hrACE2,1 to 10 nmol/L
same,increase in UAE in comparison to vehicle db/db controls,"[1]; db/db mice, 16 weeks of treatment, age 24 weeks",about three-fold
same,albumin/creatinine ratio,"[1]; db/db mice, MLN-4760 s.c. 40-80 mg/kg every other day, after 12 weeks of treatment, vehicle 124±23",474 ± 166 µg/mg
same,urinary albumin excretion (UAE),"[1]; db/db mice, after 16 weeks of treatment, age 24 weeks, vehicle 247±53.9",743 ± 200 µg/mg
same,urinary albumin excretion (UAE),"[1]; db/m mice treated with MLN-4760, vehicle 32±3, p=NS",55 ± 24 µg/mg
same,"fluorescence signal, % of control",[4],46.4±0.7 % of control
same,percentage of glomeruli with strong fibronectin staining,"[5]; db/db mice treated with MLN-4760, vehicle 28.5%±6.4",54.8%±4.6
same,percentage of glomeruli with strong fibronectin staining,"[5]; db/m mice receiving MLN-4760, vehicle 17.3%±5.2",41.1%±4.1
O=C(O)CC(Cc1ccccc1)C(=O)O (stereo not drawn) [benzyl succinate],quenching of fluorescence,[2],failed to quench fluorescence
same,reduction of fluorescence signal,[4]; benzyl succinate 100 μmol/L,did not reduce significantly the fluorescence signal
O=C(O)CN(CCN(CC(=O)O)CC(=O)O)CC(=O)O [EDTA],"fluorescence signal, % of control",[4],about 16 % of control
